Reference: US20130156768A1, “COMBINATION OF ANTI-CTLA4 ANTIBODY WITH BRAF INHIBITORS FOR THE SYNERGISTIC TREATMENT OF PROLIFERATIVE DISEASES” (Bristol-Myers Squibb Company, priority 2010, published 2013)

Legend:
OVA-specific T cells [1] = test: Model of antigen-induced T-cell proliferation (OVA adoptive transfer, OVA-specific tetramer staining); format: in vivo, C57BL6 mice; conditions: CTLA-4 mAb 20 mg/kg days 1, 3; BRAF inhibitor 100 mg/kg days 1, 3, 5; erlotinib 100 mg/kg p.o. daily days 1-5; FIG. 3
Protocol: The effect of the combination of a BRAF inhibitor and CTLA-4 mAb was evaluated in a model of antigen-induced T-cell proliferation. In this model, T cells specific for the antigen ovalbumin (OVA) were adoptively transferred into naive C57BL6 mice on study day −1. On Study Day 0, animals were challenged with 250 ug of an OVA peptide (i.v.). Animals were reandomized and divided into groups of 5. Treatments were administered as follows: CTLA-4 mAb—20 mg/kg—study days 1 and 3; Methyl {5-[2-chloro-2-methylphenyl)-1-hydroxy-3-oxo-2,3-dihydro-1H-isoindol-1-yl]-1H-benzimidazol-2-yl}carbamate—100 mg/kg—study days 1, 3, and 5. In addition, another study group received erlotinib (TARCEVA®) daily at 100 mg/kg, p.o. from study days 1 through 5. Combination groups consisted of Compound Ia and CTLA-4 mAb or erlotinib+CTLA-4 mAb following the same schedules. Control animals received the OVA challenge and no further treatment. Expansion of OVA-specific T cells was measured prior to OVA challenge and on days 2, 5, 7 and 16 by OVA-specific tetramer staining.

OVA-specific T cells [2] = test: Second study in the OVA adoptive transfer model (OVA-specific T cell responses); format: in vivo, murine; conditions: agent added to CTLA-4 mAb, FIG. 5
Source text: In addition, combination of both agents synergistically expanded antigen-specific T cells when dosed concurrently. The effect of this promising combination was further investigated in a) a tumor model sensitive to CTLA-4 blockade (SA1N fibrosarcoma); b) in the antigen (OVA)-specific T cell model to assess the effect of Methyl {5-[2-chloro-2-methylphenyl)-1-hydroxy-3-oxo-2,3-dihydro-1H-isoindol-1-yl]-1H-benzimidazol-2-yl}carbamate at different dose levels and compared its activity to another BRAF inhibitor (EXT-000153, Genentech) and EVRI.
Previously, the unexpected expansion of antigen-specific T cells with the use of Methyl {5-[2-chloro-2-methylphenyl)-1-hydroxy-3-oxo-2,3-dihydro-1H-isoindol-1-yl]-1H-benzimidazol-2-yl}carbamate+CTLA-4 mAb in an OVA adoptive transfer model was observed (see Example 2). Thus, a second study was designed to confirm these initial observations to determine the dose effect of Methyl {5-[2-chloro-2-methylphenyl)-1-hydroxy-3-oxo-2,3-dihydro-1H-isoindol-1-yl]-1H-benzimidazol-2-yl}carbamate and to determine whether this phenomenon could also be elicited by other RAF inhibitors. In addition, EVRI, an EGFR/VEGFR inhibitor which inhibits the MAPK pathway was also included in this experiment.

SA1N fibrosarcoma = test: Antitumor activity in the SA1N fibrosarcoma tumor model; format: in vivo
Protocol: In addition, combination of both agents synergistically expanded antigen-specific T cells when dosed concurrently.
In the SA1N tumor model, the effect of the combination of both agents was investigated under either a concurrent dosing regimen or a sequential schedule.
Sa1N tumors were implanted s.c. and treatments were administered as follows: Methyl {5-[2-chloro-2-methylphenyl)-1-hydroxy-3-oxo-2,3-dihydro-1H-isoindol-1-yl]-1H-benzimidazol-2-yl}carbamate, […], 20 mg/kg, Q4D×3, starting on day 17.

CT26 colon carcinoma = test: Antitumor activity in the murine CT26 colon carcinoma model; format: in vivo; conditions: for % TGI: CT26
Source text: Thus, there was an interest in determining whether a potentiation of an antitumor immune response could be achieved by the combination of a CTLA-4 blocking mAb and a BRAF inhibitor in a murine CT26 colon carcinoma model.
Pharmacology studies are currently being conducted in support of the proposed clinical trial evaluating the antitumor activity of the BRAF inhibitor Methyl {5-[2-chloro-2-methylphenyl)-1-hydroxy-3-oxo-2,3-dihydro-1H-isoindol-1-yl]-1H-benzimidazol-2-yl}carbamate, and ipilimumab in subjects with advanced melanoma. Efficacy studies were conducted in the CT26 colon carcinoma, a tumor model sensitive to CTLA-4 blockade.
Two different combination schedules were evaluated, concurrent and sequential. In the concurrent setting, Methyl {5-[2-chloro-2-methylphenyl)-1-hydroxy-3-oxo-2,3-dihydro-1H-isoindol-1-yl]-1H-benzimidazol-2-yl}carbamate (100 mg/kg, p.o.) was administered every other day for […] while CTLA-4 mAb (20 mg/kg, i.p.) was dosed every 4 days for 3 doses starting on day 5. In the sequential setting, Methyl {5-[2-chloro-2-methylphenyl)-1-hydroxy-3-oxo-2,3-dihydro-1H-isoindol-1-yl]-1H-benzimidazol-2-yl}carbamate (100 mg/kg, p.o.) was dosed every other day for 4 doses from day 4-10 while CTLA-4 mAb (20 mg/kg, i.p.) was dosed every 4 days for 3 doses starting on day 11. Control groups consisted of each agent dosed in combination with vehicle control following the same schedule.

Row | SMILES | OVA tetramer response (expansion of OVA-specific T cells) (OVA-specific T cells [1]) | effect on the OVA-specific T cell expansion elicited by CTLA-4 mAb (OVA-specific T cells [2]) | toxicity of extended dosing (SA1N fibrosarcoma; SA1N tumor model, 7 doses used in the concurrent regimen) | complete regressions (SA1N fibrosarcoma; SA1N, sequential treatment: BRAF inhibitor 100 mg/kg Q2Dx4 from day 10, CTLA-4 mAb 20 mg/kg Q4Dx3 from day 17) | % TGI (CT26 colon carcinoma; concurrent schedule, Day 26, BRAF inhibitor 100 mg/kg p.o. every other day x7 from day 4, CTLA-4 mAb 20 mg/kg i.p. every 4 days x3 from day 5) [%] | % TGI (CT26 colon carcinoma; sequential schedule, day 26, BRAF inhibitor 100 mg/kg p.o. every other day x4 day 4-10, CTLA-4 mAb 20 mg/kg i.p. every 4 days x3 from day 11) [%] | complete regressions (CR) (CT26 colon carcinoma; CT-26 colon carcinoma model)
1 | C#Cc1cccc(Nc2ncnc3cc(OCCOC)c(OCCOC)cc23)c1 [erlotinib, reference compound] | decreased the response |  |  |  |  |  | 
2 | COC(=O)Nc1nc2cc(C3(O)c4ccccc4C(=O)N3c3cc(Cl)ccc3C)ccc2[nH]1 (centres unmarked) | effect similar to CTLA-4 mAb | enhanced CTLA-4 blockade OVA-specific T cell expansion in a dose-related manner | toxic | no regression | 70 | 77 | 1
